Data reported in US9920010B2, “CXCR7 receptor modulators” (IDORSIA PHARMACEUTICALS LTD, priority 2013, dated 2018).

Target: T1, CXCR7 (Homo sapiens, UniProt P25106)
T1 construct: host or cells: CHO-K1 (PathHunter CHO-K1 CXCR7 b-arrestin cell line, stably transfected)
Assay: PathHunter CHO-K1 CXCR7 b-arrestin recruitment assay (CXCR7 agonistic activity)
Type: cell-based
Conditions: PathHunter CHO-K1 CXCR7 b-arrestin cell line
Method in brief: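 Stable CHO-K1 line with C-terminally ProLink-tagged CXCR7 and β-arrestin 2–EA fusion; β-arrestin recruitment restores β-gal activity, read by chemiluminescence after 1 h RT detection. Cells seeded 24 h, starved in OPTIMEM 3–4 h, exposed to compounds 90 min at 37 °C in HBSS/HEPES/BSA. Geometric-mean EC50 from repeated measurements.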

T1 sequence (P25106 whole entry): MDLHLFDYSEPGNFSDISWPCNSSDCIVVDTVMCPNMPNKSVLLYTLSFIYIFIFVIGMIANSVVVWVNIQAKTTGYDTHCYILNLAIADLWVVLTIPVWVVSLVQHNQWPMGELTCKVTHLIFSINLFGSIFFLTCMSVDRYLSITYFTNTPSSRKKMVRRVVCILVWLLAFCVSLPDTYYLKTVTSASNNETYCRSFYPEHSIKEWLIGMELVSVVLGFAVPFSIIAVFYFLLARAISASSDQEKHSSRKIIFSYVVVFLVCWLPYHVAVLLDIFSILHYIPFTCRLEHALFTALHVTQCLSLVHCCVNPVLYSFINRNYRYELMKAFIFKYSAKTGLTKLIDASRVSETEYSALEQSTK
T1 sequence (P32121 whole entry partner): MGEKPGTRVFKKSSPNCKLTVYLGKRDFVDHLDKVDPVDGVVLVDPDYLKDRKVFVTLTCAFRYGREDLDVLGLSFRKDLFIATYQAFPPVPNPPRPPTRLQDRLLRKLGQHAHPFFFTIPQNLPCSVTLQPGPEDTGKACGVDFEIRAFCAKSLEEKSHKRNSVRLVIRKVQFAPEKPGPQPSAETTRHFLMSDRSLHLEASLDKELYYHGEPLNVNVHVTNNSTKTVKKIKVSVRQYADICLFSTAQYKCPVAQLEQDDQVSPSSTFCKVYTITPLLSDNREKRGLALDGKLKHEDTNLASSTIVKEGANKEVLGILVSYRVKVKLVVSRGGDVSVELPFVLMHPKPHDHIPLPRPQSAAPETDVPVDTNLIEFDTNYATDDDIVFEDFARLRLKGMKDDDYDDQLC

| EC50 [nM] | Compound |
| --- | --- |
| 0.9 | CN(C)CCN(Cc1ccccc1Cl)C(=O)CNc1cccc2c1C(C)(C)CN(CC1CC1)C2 [Example 577, N-(2-Chloro-benzyl)-2-(2-cyclopropylmethyl-4,4-dimethyl-1,2,3,4-tetrahydro-isoquinolin-5-ylamino)-N-(2-dimethylamino-ethyl)-acetamide] |
| 415 | COCCN1CCc2c(CCC(=O)N(Cc3ccccc3C(F)(F)F)CC3(C)COC3)cccc2C1 [Example 343, 3-[2-(2-Methoxy-ethyl)-1,2,3,4-tetrahydro-isoquinolin-5-yl]-N-(3-methyl-oxetan-3-ylmethyl)-N-(2-trifluoromethyl-benzyl)-propionamide] |
| 5 | CN(C)CCN(Cc1ccccc1C(F)(F)F)C(=O)CNc1cccc2c1CN(C(=O)C1CC1)CC2 [compound 560, 2-(2-Cyclopropanecarbonyl-1,2,3,4-tetrahydro-isoquinolin-8-ylamino)-N-(2-dimethylamino-ethyl)-N-(2-trifluoromethyl-benzyl)-acetamide] |
| 7 | CNCCN(Cc1ccccc1Br)C(=O)CNc1cccc2c1CCN(CC1CC1)C2 [compound 435, N-(2-Bromo-benzyl)-2-(2-cyclopropylmethyl-1,2,3,4-tetrahydro-isoquinolin-5-ylamino)-N-(2-methylamino-ethyl)-acetamide] |
| 113 | CCN1CCc2cccc(NCC(=O)N(CCN(C)C)Cc3ccc(Cl)cc3)c2C1 [compound 502] |
| 13 | C=CCN1CCc2cccc(NCC(=O)N(CCN(C)C)Cc3ccccc3C(F)(F)F)c2C1 [compound 466, 2-(2-Allyl-1,2,3,4-tetrahydro-isoquinolin-8-ylamino)-N-(2-dimethylamino-ethyl)-N-(2-trifluoromethyl-benzyl)-acetamide] |
| 2 | CN(C)CCN(Cc1ccccc1C(F)(F)F)C(=O)CCc1cccc2c1CCN(CC1CC1)C2 [compound 158, 3-(2-Cyclopropylmethyl-1,2,3,4-tetrahydro-isoquinolin-5-yl)-N-(2-dimethylamino-ethyl)-N-(2-trifluoromethyl-benzyl)-propionamide] |
